Test results reported in PubChem BioAssay AID330 (DTP/NCI, 2004).
Several values for one entry are separate records, joined by “and”; a condition that tells them apart may be missing. Identical values can stand only once. Inconclusive results and toxic doses are left out. How the source made its calls: active means survival T/C of 150% or more; inactive means T/C below 125% in these data.

Test system: P388 leukemia ip, CD2F1 mice, survival T/C
Assay: NCI In Vivo Anticancer Drug Screen. Data for tumor model P388 Leukemia (intraperitoneal) in CD2F1 (CDF1) mice
Details: endpoint: median survival time, higher = longer survival
Method in brief: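 Mice carrying the transplanted tumor received test compound or vehicle. Survival was recorded in each group, and the value is the treated-group measurement divided by that of the vehicle-treated control group.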

[1] = dose: 50.0 mg/kg/injection, schedule: Q01DX005 (ip), vehicle: saline with Tween-80
[2] = dose: 100.0 mg/kg/injection, schedule: Q01DX005 (ip), vehicle: saline with Tween-80
[3] = dose: 200.0 mg/kg/injection, schedule: Q01DX005 (ip), vehicle: saline with Tween-80
[4] = dose: 100.0 mg/kg/injection, schedule: Q04DX003 (ip), vehicle: saline with Tween-80
[5] = dose: 200.0 mg/kg/injection, schedule: Q04DX003 (ip), vehicle: saline with Tween-80
[6] = dose: 50.0 mg/kg/injection, schedule: Q01DX009 (ip), vehicle: Klucel (hydroxypropylcellulose) (HPC)
[7] = dose: 100.0 mg/kg/injection, schedule: Q01DX009 (ip), vehicle: Klucel (hydroxypropylcellulose) (HPC)
[8] = dose: 200.0 mg/kg/injection, schedule: Q01DX009 (ip), vehicle: Klucel (hydroxypropylcellulose) (HPC)
[9] = dose: 25.0 mg/kg/injection, schedule: Q01DX009 (ip), vehicle: saline
[10] = dose: 50.0 mg/kg/injection, schedule: Q01DX009 (ip), vehicle: saline
[11] = dose: 100.0 mg/kg/injection, schedule: Q01DX009 (ip), vehicle: saline
[12] = dose: 50.0 mg/kg/injection, schedule: Q01DX001 (ip), vehicle: Klucel (hydroxypropylcellulose) (HPC)
[13] = dose: 100.0 mg/kg/injection, schedule: Q01DX001 (ip), vehicle: Klucel (hydroxypropylcellulose) (HPC)
[14] = dose: 200.0 mg/kg/injection, schedule: Q01DX001 (ip), vehicle: Klucel (hydroxypropylcellulose) (HPC)
[15] = dose: 60.0 mg/kg/injection, schedule: Q01DX005 (ip), vehicle: saline with Tween-80
[16] = dose: 100.0 mg/kg/injection, schedule: Q01DX001 (ip), vehicle: saline with Tween-80
[17] = dose: 200.0 mg/kg/injection, schedule: Q01DX001 (ip), vehicle: saline with Tween-80
[18] = dose: 400.0 mg/kg/injection, schedule: Q01DX001 (ip), vehicle: saline with Tween-80
[19] = dose: 50.0 mg/kg/injection, schedule: Q01DX009 (ip), vehicle: saline with Tween-80
[20] = dose: 100.0 mg/kg/injection, schedule: Q01DX009 (ip), vehicle: saline with Tween-80
[21] = dose: 200.0 mg/kg/injection, schedule: Q01DX009 (ip), vehicle: saline with Tween-80

Measured: T/C

Cc1c2c(Cc3ccccc3)nccc2c(C)c2c1c1ccccc1n2Cc1ccccc1
inactive: dose: 6.25 mg/kg/injection, schedule: Q04DX003 (ip), vehicle: distilled water + Tween-80 87 % of control | dose: 12.5 mg/kg/injection, schedule: Q04DX003 (ip), vehicle: distilled water + Tween-80 88 % of control | dose: 50.0 mg/kg/injection, schedule: Q04DX003 (ip), vehicle: distilled water + Tween-80 86 % of control

CCN(CC)Cc1c(C)[nH]c2cc3c(cc2c1=O)CCCC3
inactive: dose: 60.0 mg/kg/injection, schedule: Q01DX005 (ip), vehicle: Klucel (hydroxypropylcellulose) (HPC) 98 % of control | dose: 120.0 mg/kg/injection, schedule: Q01DX005 (ip), vehicle: Klucel (hydroxypropylcellulose) (HPC) 90 % of control

COc1ccc(C2C(S(=O)(=O)c3ccccc3)CON2c2ccccc2)cc1 (stereo unspecified)
inactive: [1] 97 % of control | [2] 96 % of control | [3] 89 % of control

CC[n+]1cccc2ccccc21
inactive: [4] 101 % of control | [5] 94 % of control

N#CCCn1nc(SCc2ccccc2)c(=S)[nH]c1=O
inactive: [1] 95 % of control | [2] 98 % of control | [3] 100 % of control

CCCCCCOC(=O)c1cccc(N)c1
inactive: [6] 100 % of control | [7] 106 % of control | [8] 102 % of control

CC(=O)Nc1c(Br)cc(Br)c2c1C(=O)c1ccccc1-2
inactive: dose: 50.0 mg/kg/injection, schedule: Q01DX005 (ip), vehicle: Klucel (hydroxypropylcellulose) (HPC) 91 % of control | dose: 100.0 mg/kg/injection, schedule: Q01DX005 (ip), vehicle: Klucel (hydroxypropylcellulose) (HPC) 91 % of control | dose: 200.0 mg/kg/injection, schedule: Q01DX005 (ip), vehicle: Klucel (hydroxypropylcellulose) (HPC) 97 % of control

COc1ccccc1N1C(=O)C(=O)C(C(C)=O)C1=O (stereo unspecified)
inactive: [6] 107 % of control | [7] 106 % of control | [8] 108 % of control

CCCCCCCC(=O)Nc1cccc(C)c1C
inactive: [4] 90 % of control | [5] 95 % of control

c1ccc([C@H]2N[C@@H]2c2ccccn2)cc1
inactive: [1] 106 % of control | [2] 93 % of control

CC(=NC(C)(C)C)N1CCCCC1
inactive: [9] 106 % of control | [10] 100 % of control and 90 % of control | [11] 105 % of control

COc1ccc(N=Cc2ccc(C(N)=S)cc2)cc1
inactive: [12] 107 % of control | [13] 102 % of control | [14] 98 % of control

O=C1Nc2ccccc2SC1c1ccccc1Cl (stereo unspecified)
inactive: dose: 6.25 mg/kg/injection, schedule: Q01DX009 (ip), vehicle: saline 96 % of control | dose: 12.5 mg/kg/injection, schedule: Q01DX009 (ip), vehicle: saline 99 % of control | [9] 105 % of control | [10] 106 % of control and 93 % of control | [11] 102 % of control | dose: 200.0 mg/kg/injection, schedule: Q01DX009 (ip), vehicle: saline 105 % of control | dose: 400.0 mg/kg/injection, schedule: Q01DX009 (ip), vehicle: saline 113 % of control

CC(C)[Si](C#CC[Si](C(C)C)(C(C)C)C(C)C)(C(C)C)C(C)C
inactive: [15] 105 % of control | dose: 120.0 mg/kg/injection, schedule: Q01DX005 (ip), vehicle: saline with Tween-80 98 % of control | dose: 240.0 mg/kg/injection, schedule: Q01DX005 (ip), vehicle: saline with Tween-80 100 % of control

CC1C(=O)OC2CC[N+]3(C(=O)C(F)(F)F)CC4OC4(COC(=O)C(C)(O)C1(C)O)C23 (stereo unspecified)
inactive: dose: 60.0 mg/kg/injection, schedule: Q01DX005 (ip), vehicle: suspension in saline 104 % of control | dose: 120.0 mg/kg/injection, schedule: Q01DX005 (ip), vehicle: suspension in saline 93 % of control | dose: 240.0 mg/kg/injection, schedule: Q01DX005 (ip), vehicle: suspension in saline 92 % of control

Cc1ccc(C2=C/C(=C/c3ccc(N(CCC#N)CCC#N)cc3)C(=O)O2)cc1C
inactive: [16] 94 % of control | [17] 90 % of control | [18] 97 % of control

COc1ccc(-c2cc(=O)c3c(O)cc(O)cc3o2)cc1
inactive: [19] 90 % of control | [20] 90 % of control | [4] 90 % of control | [21] 110 % of control | [5] 90 % of control

O=C1c2ccccc2-c2cc(O)c3c4c(O)cc5c6c(ccc(c7ccc1c2c73)c64)C(=O)c1ccccc1-5
inactive: [1] 95 % of control | [2] 91 % of control | [3] 89 % of control

Nc1cc(-c2ccccc2)nn1-c1nnc(-c2ccccc2)c(-c2ccccc2)n1
inactive: [1] 95 % of control | [2] 100 % of control | [3] 95 % of control

COC(=O)/C(=C1/OC(=O)C(c2ccc(OC(C)=O)cc2)=C1O)c1ccc(Cl)cc1
inactive: dose: 50.0 mg/kg/injection, schedule: Q01DX009 (ip), vehicle: saline + Tween-80 + alcohol 111 % of control | dose: 100.0 mg/kg/injection, schedule: Q01DX009 (ip), vehicle: saline + Tween-80 + alcohol 115 % of control

CCc1c(Cc2[nH]c(C=O)c(C)c2CC)[nH]c(C=O)c1C
inactive: [1] 100 % of control | [2] 100 % of control | [3] 100 % of control

CCOC(=O)C1=C(c2ccccc2)N=c2ccccc2=S1C (stereo unspecified)
inactive: dose: 15.0 mg/kg/injection, schedule: Q01DX005 (ip), vehicle: saline with Tween-80 96 % of control | dose: 30.0 mg/kg/injection, schedule: Q01DX005 (ip), vehicle: saline with Tween-80 99 % of control | [15] 98 % of control and 94 % of control

C#CCOc1ccc(Cl)cc1C(=O)O
inactive: [19] 105 % of control | [20] 102 % of control | [21] 97 % of control

N#Cc1c(-c2ccccc2)sc2ccccc2c1=O
inactive: [16] 99 % of control | [17] 93 % of control | [18] 98 % of control

BrCC[P+](c1ccccc1)(c1ccccc1)c1ccccc1
inactive: dose: 1.56 mg/kg/injection, schedule: Q01DX009 (ip), vehicle: water 115 % of control | dose: 3.0 mg/kg/injection, schedule: Q01DX009 (ip), vehicle: water 120 % of control | dose: 6.25 mg/kg/injection, schedule: Q01DX009 (ip), vehicle: water 118 % of control

c1ccc(C(SN=C2CCCCC2)(c2ccccc2)c2ccccc2)cc1
inactive: [1] 100 % of control | [2] 91 % of control | [3] 90 % of control

Cc1ncc(S(=O)(=O)Cc2ccc3c(c2)OCO3)c(N)n1
inactive: dose: 100.0 mg/kg/injection, schedule: Q01DX001 (ip), vehicle: saline 96 % of control | dose: 200.0 mg/kg/injection, schedule: Q01DX001 (ip), vehicle: saline 95 % of control | dose: 400.0 mg/kg/injection, schedule: Q01DX001 (ip), vehicle: saline 95 % of control

CCN(CC)C1CS(=O)(=O)OC2=C1Cc1ccccc1CC2 (stereo unspecified)
inactive: dose: 50.0 mg/kg/injection, schedule: Q04DX003 (ip), vehicle: Klucel (hydroxypropylcellulose) (HPC) 100 % of control | dose: 100.0 mg/kg/injection, schedule: Q04DX003 (ip), vehicle: Klucel (hydroxypropylcellulose) (HPC) 99 % of control | dose: 200.0 mg/kg/injection, schedule: Q04DX003 (ip), vehicle: Klucel (hydroxypropylcellulose) (HPC) 105 % of control

COC1(c2ccccc2)C(c2ccccc2)=CC(c2ccccc2)=[N+]1[O-] (stereo unspecified)
inactive: dose: 50.0 mg/kg/injection, schedule: Q04DX003 (ip), vehicle: saline 95 % of control | dose: 100.0 mg/kg/injection, schedule: Q04DX003 (ip), vehicle: saline 109 % of control | dose: 200.0 mg/kg/injection, schedule: Q04DX003 (ip), vehicle: saline 95 % of control

OCC1(OC2OC(CF)C(O)C(O)C2O)OC(CF)C(O)C1O (stereo unspecified)
inactive: dose: 60.0 mg/kg/injection, schedule: Q01DX005 (ip), vehicle: saline 102 % of control | dose: 120.0 mg/kg/injection, schedule: Q01DX005 (ip), vehicle: saline 101 % of control

CCOP(=Nc1cc(C)ccc1C)(OCC)OCC
inactive: dose: 12.5 mg/kg/injection, schedule: Q01DX009 (ip), vehicle: Klucel (hydroxypropylcellulose) (HPC) 100 % of control | dose: 25.0 mg/kg/injection, schedule: Q01DX009 (ip), vehicle: Klucel (hydroxypropylcellulose) (HPC) 94 % of control | [12] 103 % of control | [6] 103 % of control and 93 % of control | [13] 100 % of control | [14] 96 % of control
